Test results from publication PMC10703812, “Understanding the molecular mechanisms of odorant binding and activation of the human OR52 family” (Nature Communications, 2023).
Where “and” joins values, the source holds several entries; their conditions need not be identical. Identical values can stand only once.

What was measured:
[1] = tested on: OR52cs ΔN(1–18); test: cAMP signaling assay, N-tail deletion mutant; assay type: cell-based, human; details: Fig. 2c
Experimental: (§1) For cAMP assay, CRE luciferase assay, and surface ELISA, the full-length OR52cs construct was cloned into the pcDNA3.1 vector. The Lucy signal sequence and FLAG peptide sequence were added to the N-terminus. Mutant constructs were generated by site-directed mutagenesis. For BRET assay, eYFP was added at the C-terminus of OR52cs with a GGGGS linker. Rluc was added to Gα for resonance partner (after L99 for Gαs, and I100 for Gαolf, respectively, with GGGGS linker back and forth).
(§2) Hana3A cells were seeded on 96-well white microplates and transfected with OR52cs or the corresponding mutants and cAMP sensor (Promega). The medium was exchanged with CO2-independent medium (Gibco) supplemented with 0.375 mg ml^−1 D-luciferin (Nanolight) 48 h after infection, and cells were incubated in the dark at 20 °C for 2 h. Basal luminescence was detected using a Tristar 2 LB 942 multimode reader (Berthold) until it reached a plateau. Subsequently, various concentrations of odorants and forskolin (Sigma-Aldrich) were added to each well, and luminescence was measured again. Data were analyzed and plotted using GraphPad Prism 9.4.1.

[2] = tested on: OR52cs R265A; test: CRE luciferase assay in Hana3A cells, mutant; assay type: cell-based, human; details: 100 µM carboxylic acid; Fig.S7a, single experiments
Experimental: as §1
48 h after infection, cells were treated with odorants and incubated at 37 °C for 4 h. […] All values were divided by the Renilla luciferase activity to normalize the effect of cell confluence. All data were analyzed using GraphPad Prism 9.4.1.

[3] = tested on: OR52cs / Gαs; test: BRET assay, G protein recruitment to OR52cs; assay type: cell-based, human; details: 500 µM OCA; Gαs-Rluc; Fig.S2a, single experiments; listed as OCA
Experimental: as §1
(§3) All signaling assays were performed in Hana3A cells, which were kindly provided by Dr. Matsunami. Cells were seeded on 6-well clear plate (SPL) and co-transfected with OR52cs-eYFP, Gαs-Rluc or Gαolf-Rluc, Gβ1 and Gγ2 at a 5:1:1:1 ratio. 48 h after infection, cells were collected and resuspended with PBS. 500 μM of OCA was treated to the cells, and cells were transferred to 96-well white microplate (SPL). Coelenterazine H (Nanolight) was added to each well at a final concentration of 10 μM and luminescence was measured using a Tristar 2 LB 942 multimode reader (Berthold). Data were analyzed using GraphPad Prism 9.4.1.

[4] = tested on: OR52cs / Gαolf; test: BRET assay, G protein recruitment to OR52cs; assay type: cell-based, human; details: 500 µM OCA; Gαolf-Rluc; Fig.S2a, single experiments; listed as OCA
Experimental: as §1, §3

[5] = tested on: pcDNA (Null) Hana3A cells; test: cAMP signaling assay, no receptor (Null / pcDNA); assay type: cell-based; design: cAMP response: unit not given here; details: single experiments; for cAMP response: Fig.S11a source data
Experimental: as §2

[6] = tested on: OR52cs H275A; test: cAMP signaling assay, mutant; assay type: cell-based, human; design: cAMP response: scale not given here; details: for cAMP response: Fig.S13b source data, single experiments
Experimental: as §1, §2

[7] = tested on: OR52cs Y254A; test: cAMP signaling assay, mutant; assay type: cell-based, human; design: cAMP response: scale not given here; details: for cAMP response: Fig.S13b source data, single experiments
Experimental: as §1, §2

[8] = tested on: OR52cs I208A; test: cAMP signaling assay, mutant; assay type: cell-based, human; design: cAMP response: scale not given here; details: for cAMP response: Fig.3d source data, single experiments
Experimental: as §1, §2

[9] = tested on: OR52cs S114A; test: cAMP signaling assay, mutant; assay type: cell-based, human; design: cAMP response: scale not given here; details: for cAMP response: Fig.S13b source data, single experiments
Experimental: as §1, §2

[10] = tested on: OR52cs F253A; test: cAMP signaling assay, mutant; assay type: cell-based, human; design: cAMP response: scale not given here; details: for cAMP response: Fig.S13b source data, single experiments
Experimental: as §1, §2

[11] = tested on: OR52cs F161A; test: cAMP signaling assay, mutant; assay type: cell-based, human; design: cAMP response: scale not given here; details: for cAMP response: Fig.3d source data, single experiments
Experimental: as §1, §2

[12] = tested on: OR52cs F261A; test: cAMP signaling assay, mutant; assay type: cell-based, human; design: cAMP response: scale not given here; details: for cAMP response: Fig.3d source data, single experiments
Experimental: as §1, §2

[13] = tested on: OR52cs T110A; test: cAMP signaling assay, mutant; assay type: cell-based, human; design: cAMP response: scale not given here; details: for cAMP response: Fig.3d source data, single experiments
Experimental: as §1, §2

[14] = tested on: OR52cs H264A; test: cAMP signaling assay, mutant; assay type: cell-based, human; design: cAMP response: scale not given here; details: for cAMP response: Fig.S13b source data, single experiments
Experimental: as §1, §2

CCCCCCCC(=O)O [Octanoate, octanoic acid]
downstream signaling (in words) [1]: loss of downstream signaling
relative fold (luciferase activity over DMSO) [2]: 1.143 fold and 0.8826 fold and 1.532 fold and 1.19 fold
ΔBRET (OCA- minus vehicle-treated BRET signal) [3]: 0.0184 and 0.01592 and 0.01247 and 0.01013 and 0.01218
ΔBRET (OCA- minus vehicle-treated BRET signal) [4]: 0.01011 and 0.01399 and 0.007869 and 0.00957 and 0.01164
cAMP response ([5]; odorant 9.18274e-8 M): 2.6643 and 2.911 and 3.873 and 3.399
cAMP response ([5]; odorant 9.18274e-7 M): 2.569 and 3.588 and 3.415 and 3.589
cAMP response ([5]; odorant 9.18274e-6 M): 2.895 and 3.57 and 4.047 and 4.019
cAMP response ([5]; odorant 3.0303e-5 M): 3.574 and 3.7923 and 3.945 and 4.033
cAMP response ([5]; odorant 0.0001 M): 3.1425 and 4.269 and 3.81 and 3.981
cAMP response (raw signal) upon OCA treatment ([5]; odorant 0.001 M (1 mM OCA), Fig.S11a left, listed as Octanotae): 10538 and 15823 and 16065 and 17585
cAMP response ([5]; odorant 0.001 M): 4.161 and 5.018 and 6.3304 and 6.191
EC50 ([6]; Supplementary Fig. 13b): 67 µM
cAMP response ([6]; odorant 9.18274e-7 M): 1.163 and 1.2177 and 0.8093
cAMP response ([6]; odorant 9.18274e-6 M): 12.1088 and 9.48 and 7.718
cAMP response ([6]; odorant 3.0303e-5 M): 33.8567 and 32.1825 and 24.2227
cAMP response ([6]; odorant 0.0001 M): 62.7151 and 60.5238 and 53.5809
cAMP response ([6]; odorant 0.001 M): 101.549 and 94.9309 and 77.7131
EC50 ([7]; Supplementary Fig. 13b): 0.6 µM
cAMP response ([7]; odorant 9.18274e-8 M): 3.215 and 2.4896 and 3.9476
cAMP response ([7]; odorant 9.18274e-7 M): 17.867 and 17.7491 and 20.6138
cAMP response ([7]; odorant 9.18274e-6 M): 27.7636 and 29.4886 and 28.529
cAMP response ([7]; odorant 3.0303e-5 M): 29.9943 and 28.2884 and 30.9686
cAMP response ([7]; odorant 0.0001 M): 31.1114 and 30.9026 and 31.9237
cAMP response ([7]; odorant 0.001 M): 30.3248 and 30.6953 and 33.5912
X-fold over OR52cs (relative fold of EC50) ([8]; Supplementary Table 3): 0.65
EC50 ([8]; Supplementary Table 3, N=3): 5.1 µM
pEC50 ± SEM ([8]; Supplementary Table 3, N=3): 5.321 ± 0.119
cAMP response ([8]; odorant 9.18274e-7 M): 9.649 and 7.873 and 7.984
cAMP response ([8]; odorant 9.18274e-6 M): 74.2921 and 59.9569
cAMP response ([8]; odorant 3.0303e-5 M): 118.216 and 87.9298 and 99.5696
cAMP response ([8]; odorant 0.0001 M): 123.062 and 85.14 and 99.773
cAMP response ([8]; odorant 0.001 M): 115.233 and 86.0111 and 85.4934
EC50 ([9]; Supplementary Fig. 13b): 54 µM
cAMP response ([9]; odorant 9.18274e-7 M): 0.7937 and 0.8194 and 1.08
cAMP response ([9]; odorant 9.18274e-6 M): 9.728 and 8.57 and 11.8154
cAMP response ([9]; odorant 3.0303e-5 M): 42.675 and 40.9596 and 54.3071
cAMP response ([9]; odorant 0.0001 M): 71.9561 and 66.6762 and 91.932
cAMP response ([9]; odorant 0.001 M): 103.979 and 112.532 and 126.832
EC50 ([10]; Supplementary Fig. 13b): 219 µM
cAMP response ([10]; odorant 9.18274e-8 M): 0.6755 and 1.259 and 1.115
cAMP response ([10]; odorant 9.18274e-7 M): 1.327 and 1.6492 and 1.457
cAMP response ([10]; odorant 9.18274e-6 M): 3.718 and 4.351 and 3.597
cAMP response ([10]; odorant 3.0303e-5 M): 11.1366 and 13.9484 and 11.2845
cAMP response ([10]; odorant 0.0001 M): 38.3735 and 42.0381 and 35.9654
cAMP response ([10]; odorant 0.001 M): 106.487 and 105.397 and 81.8862
X-fold over OR52cs (relative fold of EC50) ([11]; Supplementary Table 3): 5.3
EC50 ([11]; Supplementary Table 3, N=3): 42 µM
pEC50 ± SEM ([11]; Supplementary Table 3, N=3): 4.214 ± 0.075
cAMP response ([11]; odorant 3.0303e-5 M): 40.1826 and 27.0053 and 36.2901
cAMP response ([11]; odorant 0.0001 M): 77.0461 and 49.0263 and 69.6028
cAMP response ([11]; odorant 0.001 M): 102.629 and 63.8026 and 79.1192
downstream signaling (in words) ([12]; Fig. 3d): significantly reduced downstream signaling
X-fold over OR52cs (relative fold of EC50) ([12]; Supplementary Table 3): 64.0
EC50 ([12]; Supplementary Table 3, N=3): 506 µM
pEC50 ± SEM ([12]; Supplementary Table 3, N=3): 3.326 ± 1.547
cAMP response ([12]; odorant 9.18274e-7 M): 3.451 and 3.066 and 1.971
cAMP response ([12]; odorant 3.0303e-5 M): 5.756 and 6.219 and 11.0254
cAMP response ([12]; odorant 0.001 M): 66.0962 and 58.1347 and 77.5545
X-fold over OR52cs (relative fold of EC50) ([13]; Supplementary Table 3): 2.9
EC50 ([13]; Supplementary Table 3, N=3): 22.7 µM
pEC50 ± SEM ([13]; Supplementary Table 3, N=3): 4.293 ± 0.098
cAMP response ([13]; odorant 3.0303e-5 M): 45.9718 and 31.6697 and 55.6315
cAMP response ([13]; odorant 0.0001 M): 55.3228 and 56.0506 and 78.0827
cAMP response ([13]; odorant 0.001 M): 63.5049 and 61.123 and 88.9664
EC50 ([14]; Supplementary Fig. 13b): 60 µM
cAMP response ([14]; odorant 9.18274e-6 M): 4.615 and 4.081 and 4.27
cAMP response ([14]; odorant 3.0303e-5 M): 14.0038 and 11.3214 and 12.3984
cAMP response ([14]; odorant 0.0001 M): 28.5965 and 25.2729 and 26.8638
cAMP response ([14]; odorant 0.001 M): 40.8869 and 35.5267 and 36.771
